This note sets out measurements from patent US20260108521A1, “GSPT1 DEGRADERS, COMPOSITIONS COMPRISING THE DEGRADER, AND METHODS OF USING THE SAME” (BIOFRONT LTD, priority 2022, published 2026).

pIC50: −log10 of the molar value.

One assay deals with T1, GSPT1 protein (Homo sapiens, UniProt P15170+Q96SW2).
T1 construct: endogenous in cells; host or cells: HL-60 cells
Nature of the assay: GSPT1 degradation assay (western blot) in HL-60 cells. The class given is cell-based. The settings on record: GSPT1 protein level, 2h incubation, western blot normalized to beta-Actin; for inhibition at 0.1 µM: 0.1 μM compound; for inhibition at 1 µM: 1 μM compound. As to the method: HL-60 cells (4×10^^6 cells/well) were seeded in 6-well culture plate (Costar, 3516) and treated with a variety of concentrations of test compound. After 2h incubation, cells were collected and lysed. The protein concentration was determined by BCA protein assay kit from Thermo (23227). The GSPT1 protein level was determined by western blots, using GSPT1 polyclonal antibody. Proteins were loaded into each well of the pre-casting gels and subjected to electrophoretic separation by SDS-PAGE. The protein resolved by SDS-PAGE were transferred to PVDF, blocked by 5% skim milk and probed with anti-GSPT1 antibody (Proteintech, 10763-1-AP) or anti-β-actin antibody (CST, 3700S), using following standard western blotting procedure. Blots intensities were quantified using ImageJ software and the intensity of GSPT1 bands were normalized to beta-Actin bands, respectively. The GSPT1 degradation results were then calculated. Reported compound C84971 (see WO2021126974A1 and WO2021126973A1) was used as a reference.

The subject of a further assay is HL-60 cells. In words: Cell viability assay (CellTiter-Glo). The following applies: Homo sapiens, 72 h incubation, 6-point serial dilution. In kind it is cell-based. Here is the method: HL-60 cells were seeded at a density of 7000 cells per well in 96-well culture plates (Corning 3903) with IMDM and treated with test compounds following a 6-point serial dilution. RPMI 1640 (0.1% DMSO) was used as control for each well. After 72 h incubation, cell viability was determined using the CellTiter-Glo assay kit (Promega, G9242) according to the manufacturer's instructions. The dose-response curves were determined and IC50 values were calculated using the GraphPad Prism software following a nonlinear regression method.

T1 sequence (P15170 whole entry): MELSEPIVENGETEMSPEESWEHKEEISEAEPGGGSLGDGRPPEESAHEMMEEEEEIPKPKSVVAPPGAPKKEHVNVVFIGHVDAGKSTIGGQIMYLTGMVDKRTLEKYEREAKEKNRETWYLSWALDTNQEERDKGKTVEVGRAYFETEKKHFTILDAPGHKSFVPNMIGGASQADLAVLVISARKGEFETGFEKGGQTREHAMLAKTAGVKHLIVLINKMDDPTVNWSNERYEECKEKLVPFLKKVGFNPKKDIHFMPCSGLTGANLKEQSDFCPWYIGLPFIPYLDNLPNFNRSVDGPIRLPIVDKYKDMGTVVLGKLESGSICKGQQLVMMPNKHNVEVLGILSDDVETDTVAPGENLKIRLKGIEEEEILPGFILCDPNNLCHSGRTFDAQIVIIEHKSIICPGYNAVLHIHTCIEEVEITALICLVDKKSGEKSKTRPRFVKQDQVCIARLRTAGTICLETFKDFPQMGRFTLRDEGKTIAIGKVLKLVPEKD
T1 sequence (Q96SW2 whole entry): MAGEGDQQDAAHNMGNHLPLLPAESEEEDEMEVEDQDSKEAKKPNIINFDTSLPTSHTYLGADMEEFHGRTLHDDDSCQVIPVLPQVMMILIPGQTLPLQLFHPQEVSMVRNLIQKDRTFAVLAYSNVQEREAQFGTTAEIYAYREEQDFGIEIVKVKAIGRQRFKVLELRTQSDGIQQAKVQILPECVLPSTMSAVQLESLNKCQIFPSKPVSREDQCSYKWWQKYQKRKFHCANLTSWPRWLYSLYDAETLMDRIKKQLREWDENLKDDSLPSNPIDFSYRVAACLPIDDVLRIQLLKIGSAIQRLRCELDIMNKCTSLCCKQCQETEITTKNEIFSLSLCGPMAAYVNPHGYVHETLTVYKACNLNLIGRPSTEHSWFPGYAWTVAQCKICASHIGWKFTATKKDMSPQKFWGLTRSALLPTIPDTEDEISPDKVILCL
T1 sequence (Q16531 whole entry partner): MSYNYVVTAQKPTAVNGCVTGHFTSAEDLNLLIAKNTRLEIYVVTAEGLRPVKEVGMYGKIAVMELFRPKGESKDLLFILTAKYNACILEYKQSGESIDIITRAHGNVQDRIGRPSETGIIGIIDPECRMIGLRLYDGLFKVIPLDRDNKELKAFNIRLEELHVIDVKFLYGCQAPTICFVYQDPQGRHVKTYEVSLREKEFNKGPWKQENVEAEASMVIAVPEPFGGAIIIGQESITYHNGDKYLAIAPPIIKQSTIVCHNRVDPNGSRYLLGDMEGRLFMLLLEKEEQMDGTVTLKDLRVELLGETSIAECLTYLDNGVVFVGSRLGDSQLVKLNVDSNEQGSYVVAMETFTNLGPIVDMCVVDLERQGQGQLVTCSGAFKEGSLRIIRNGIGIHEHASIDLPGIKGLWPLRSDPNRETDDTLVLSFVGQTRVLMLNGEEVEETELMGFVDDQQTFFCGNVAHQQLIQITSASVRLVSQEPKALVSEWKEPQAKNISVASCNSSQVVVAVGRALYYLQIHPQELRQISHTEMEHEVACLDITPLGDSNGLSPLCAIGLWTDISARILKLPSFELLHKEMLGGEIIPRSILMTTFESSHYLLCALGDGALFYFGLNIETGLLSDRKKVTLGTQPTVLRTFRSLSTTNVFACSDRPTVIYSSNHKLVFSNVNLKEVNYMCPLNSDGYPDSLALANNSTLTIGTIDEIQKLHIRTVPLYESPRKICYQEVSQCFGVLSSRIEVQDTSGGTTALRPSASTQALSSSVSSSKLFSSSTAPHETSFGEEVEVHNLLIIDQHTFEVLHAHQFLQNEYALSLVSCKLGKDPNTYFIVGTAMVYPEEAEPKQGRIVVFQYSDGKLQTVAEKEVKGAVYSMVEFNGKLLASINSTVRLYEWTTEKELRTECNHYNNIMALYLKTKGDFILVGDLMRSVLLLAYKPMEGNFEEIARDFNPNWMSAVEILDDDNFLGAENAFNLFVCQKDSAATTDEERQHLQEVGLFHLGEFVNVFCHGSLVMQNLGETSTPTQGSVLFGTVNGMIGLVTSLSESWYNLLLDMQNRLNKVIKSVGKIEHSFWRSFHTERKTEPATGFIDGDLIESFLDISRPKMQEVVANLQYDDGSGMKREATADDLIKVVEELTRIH

On GSPT1 protein, `O=C1CCC(N2C(=O)c3ccc(N4CC(CCN5CCCN(c6cccc(-c7cnc8ccccc8c7)c6)C5=O)C4)cc3C2=O)C(=O)N1` (stereo not drawn) [Compound 23, 2-(2,6-dioxopiperidin-3-yl)-5-(3-(2-(2-oxo-3-(3-(quinolin-3-yl)phenyl)tetrahydropyrimidin-1(2H)-yl)ethyl)azetidin-1-yl)isoindoline-1,3-dione] yielded an inhibition at 0.1 µM of 33% and an inhibition at 1 µM of 45%. The compound further showed a pIC50 in the assay with HL-60 cells below 6.00.

At GSPT1 protein, `O=C1CCC(N2C(=O)c3ccc(N4CC(CCN5CCN(c6ccccc6)C5=O)C4)cc3C2=O)C(=O)N1` (stereo not drawn) [Compound 12, 2-(2,6-dioxopiperidin-3-yl)-5-(3-(2-(2-oxo-3-phenylimidazolidin-1-yl)ethyl)azetidin-1-yl)isoindoline-1,3-dione] yielded an inhibition at 0.1 µM of 0% and an inhibition at 1 µM of 0%. This compound also gave a pIC50 in the assay on HL-60 cells below 6.00.

`Nc1ccc(-c2cccc(N3CCCN(CC4CCN(c5ccc6c(c5)C(=O)N(C5CCC(=O)NC5=O)C6=O)CC4)C3=O)c2)c(Cl)n1` (stereo not drawn) [Compound 28, 5-[4-({3-[3-(6-amino-2-chloropyridin-3-yl)phenyl]-2-oxo-1,3-diazinan-1-yl}methyl)piperidin-1-yl]-2-(2,6-dioxopiperidin-3-yl)isoindole-1,3-dione]: on GSPT1 protein, 0.1 µM produced 77% inhibition and the inhibition at 1 µM turned out to be 78%. In the assay on HL-60 cells, this compound had a pIC50 of 7.29.

At GSPT1 protein, `O=C1CCC(N2C(=O)c3ccc(N4CCC(CN5CCCN(c6cccc(Br)c6)C5=O)CC4)cc3C2=O)C(=O)N1` (stereo not drawn) [Compound 9, 5-(4-((3-(3-bromophenyl)-2-oxotetrahydropyrimidin-1(2H)-yl)methyl)piperidin-1-yl)-2-(2,6-dioxopiperidin-3-yl)isoindoline-1,3-dione] gave an inhibition at 0.1 µM of 0% and an inhibition at 1 µM of 15%. This compound had a pIC50 with HL-60 cells below 6.00.

On to `CCc1c(N)ccc(-c2cccc(N3CCCN(CC4CCN(c5ccc6c(c5)C(=O)N(C5CCC(=O)NC5=O)C6=O)CC4)C3=O)c2)c1Cl` (stereo not drawn) [Compound 29, 5-(4-((3-(4′-amino-2′-chloro-3′-ethyl-[1,1′-biphenyl]-3-yl)-2-oxotetrahydropyrimidin-1(2H)-yl)methyl)piperidin-1-yl)-2-(2,6-dioxopiperidin-3-yl)isoindoline-1,3-dione], for which, on GSPT1 protein, 0.1 µM produced 45% inhibition and 1 µM produced 47% inhibition. Also, the pIC50 with HL-60 cells was 6.65.

Turning to `O=C1CCC(N2Cc3ccc(N4CCNC4=O)cc3C2=O)C(=O)N1` (stereo not drawn) [Compound C84971, reference compound], at GSPT1 protein, testing at 0.1 µM gave an inhibition of 0% and the inhibition at 1 µM was 0%. In the assay with HL-60 cells, this compound showed a pIC50 below 5.30.

At GSPT1 protein, `O=C1CCC(N2C(=O)c3ccc(N4CCC(CN5CCCN(c6cccc(-c7cnccc7Cl)c6)C5=O)CC4)cc3C2=O)C(=O)N1` (stereo not drawn) [Compound 3, 5-(4-((3-(3-(4-chloropyridin-3-yl)phenyl)-2-oxotetrahydropyrimidin-1(2H)-yl)methyl)piperidin-1-yl)-2-(2,6-dioxopiperidin-3-yl)isoindoline-1,3-dione] returned an inhibition at 0.1 µM of 30% and an inhibition at 1 µM of 48%. The same compound gave a pIC50 in the assay with HL-60 cells of 6.63.

For `CS(=O)(=O)c1ccc(-c2cccc(N3CCCN(CC4CCN(c5ccc6c(c5)C(=O)N(C5CCC(=O)NC5=O)C6=O)CC4)C3=O)c2)c(Cl)c1` (stereo not drawn) [Compound 33, 5-[4-({3-[3-(2-chloro-4-methanesulfonylphenyl)phenyl]-2-oxo-1,3-diazinan-1-yl}methyl)piperidin-1-yl]-2-(2,6-dioxopiperidin-3-yl)isoindole-1,3-dione], on GSPT1 protein, the inhibition at 0.1 µM was below 10% and the inhibition at 1 µM worked out at 15%.

At GSPT1 protein, `O=C1CCC(N2C(=O)c3ccc(N4CCC(CN5CCCN(C6CCCCC6)C5=O)CC4)cc3C2=O)C(=O)N1` (stereo not drawn) [Compound 5, 5-(4-((3-cyclohexyl-2-oxotetrahydropyrimidin-1(2H)-yl)methyl)piperidin-1-yl)-2-(2,6-dioxopiperidin-3-yl) isoindoline-1,3-dione] displayed an inhibition at 0.1 µM of 17% and an inhibition at 1 µM of 7%.

At GSPT1 protein, `CCc1c[nH]c2ccc(-c3cc(N4CCCN(CC5CCN(c6ccc7c(c6)C(=O)N(C6CCC(=O)NC6=O)C7=O)CC5)C4=O)ccn3)c(Cl)c12` (stereo not drawn) [Compound 35, 5-(4-((3-(2-(4-chloro-3-ethyl-1H-indol-5-yl)pyridin-4-yl)-2-oxotetrahydropyrimidin-1(2H)-yl)methyl)piperidin-1-yl)-2-(2,6-dioxopiperidin-3-yl)isoindoline-1,3-dione] gave an inhibition at 0.1 µM of 0% and an inhibition at 1 µM of 0%.

Take `CC(C)(C)N1CCCN(CC2CCN(c3ccc4c(c3)C(=O)N(C3CCC(=O)NC3=O)C4=O)CC2)C1=O` (stereo not drawn) [Compound 7, 5-(4-((3-(tert-butyl)-2-oxotetrahydropyrimidin-1(2H)-yl)methyl)piperidin-1-yl)-2-(2,6-dioxopiperidin-3-yl)isoindoline-1,3-dione]: on GSPT1 protein, the inhibition at 0.1 µM was 0% and at 1 µM the inhibition was 10%.

On GSPT1 protein, `O=C1CCC(c2ccc(N3CCC(CN4CCCN(c5ccccc5)C4=O)CC3)cc2)C(=O)N1` (stereo not drawn) [Compound 13, 3-(4-{4-[(2-oxo-3-phenyl-1,3-diazinan-1-yl)methyl]piperidin-1-yl}phenyl) piperidine-2,6-dione] showed an inhibition at 0.1 µM of 0% and an inhibition at 1 µM of 0%.

On GSPT1 protein, `O=C1CCC(N2C(=O)c3ccc(N4CC(CCN5CCCN(c6cccc(-c7ccn8ccnc8c7)c6)C5=O)C4)cc3C2=O)C(=O)N1` (stereo not drawn) [Compound 21, 2-(2,6-dioxopiperidin-3-yl)-5-(3-(2-(3-(3-(imidazo[1,2-a]pyridin-7-yl)phenyl)-2-oxotetrahydropyrimidin-1(2H)-yl)ethyl)azetidin-1-yl)isoindoline-1,3-dione] displayed an inhibition at 0.1 µM of 35% and an inhibition at 1 µM of 40%.

At GSPT1 protein, `Cc1nc2ncc(-c3cccc(N4CCCN(CCC5CN(c6ccc7c(c6)C(=O)N(C6CCC(=O)NC6=O)C7=O)C5)C4=O)c3)cc2o1` (stereo not drawn) [Compound 24, 2-(2,6-dioxopiperidin-3-yl)-5-(3-(2-(3-(3-(2-methyloxazolo[4,5-b]pyridin-6-yl)phenyl)-2-oxotetrahydropyrimidin-1(2H)-yl)ethyl)azetidin-1-yl)isoindoline-1,3-dione] had an inhibition at 0.1 µM of 26% and an inhibition at 1 µM of 29%.

With `O=C1CCC(N2C(=O)c3ccc(N4CCC(CN5CCN(c6ccccc6)C5=O)CC4)cc3C2=O)C(=O)N1` (stereo not drawn) [Compound 2, 2-(2,6-dioxopiperidin-3-yl)-5-(4-((2-oxo-3-phenylimidazolidin-1-yl)methyl)piperidin-1-yl)isoindoline-1,3-dione], at GSPT1 protein, at 0.1 µM the inhibition was 0% and testing at 1 µM gave an inhibition of 0%.

Consider `CCn1ncc2ccc(-c3cccc(N4CCCN(CC5CCN(c6ccc7c(c6)C(=O)N(C6CCC(=O)NC6=O)C7=O)CC5)C4=O)c3)c(Cl)c21` (stereo not drawn) [Compound 34, 5-(4-((3-(3-(7-chloro-1-ethyl-1H-indazol-6-yl)phenyl)-2-oxotetrahydropyrimidin-1(2H)-yl)methyl)piperidin-1-yl)-2-(2,6-dioxopiperidin-3-yl)isoindoline-1,3-dione], for which, on GSPT1 protein, 0.1 µM produced 58% inhibition and the inhibition at 1 µM was found to be 53%.
